The source of these data is patent US9676701B2, “Cyclopropylamine derivatives useful as LSD1 inhibitors” (Oryzon Genomics, S.A., priority 2010, dated 2017).

Assay [1] addresses T1, MAO-B (Homo sapiens (Human), UniProt P27338). Nature of the assay: biochemical.
For assay [2], the target named is T2, Human recombinant LSD1 protein (Homo sapiens (Human), UniProt O60341). As to the kind of experiment: biochemical.
Source text: (§1) The ability of the compounds of the invention to inhibit LSD1 can be tested as follows. Human recombinant LSD1 protein was purchased from BPS Bioscience Inc. In order to monitor LSD1 enzymatic activity and/or its inhibition rate by our inhibitor(s) of interest, di-methylated H3-K4 peptide (Millipore) was chosen as a substrate. The demethylase activity was estimated, under aerobic conditions, by measuring the release of H2O2 produced during the catalytic process, using the Amplex® Red peroxide/peroxidase-coupled assay kit (Invitrogen).
(§2) Within the experiment, each concentration of inhibitor was tested in triplicate. […] The enzymatic reactions were set up in a 50 mM sodium phosphate, pH 7.4 buffer. At the end of the incubation, Amplex® Red reagent and horseradish peroxidase (HPR) solution were added to the reaction according to the recommendations provided by the supplier (Invitrogen), and left to incubate for 30 extra minutes at room temperature in the dark. A 1 μM H2O2 solution was used as a control of the kit efficiency.
(§3) The Ki (IC50) of each inhibitor was estimated at half of the maximum activity.
Assay [3] concerns the target T3, MAO-A (Homo sapiens (Human), UniProt P21397). As to conditions: read-out: MAO-A (Ki).
In assay [4] the target is T3, MAO-A. Nature of the assay: biochemical.
Assay [5] concerns the target T1, MAO-B. As to conditions: read-out: MAO-B (Ki).
Assay [6] concerns the target T2, Human recombinant LSD1 protein. Particulars: for Ki: read-out: LSD1 (Ki).
Source text: as §1, §2, §3

Structures can show the parent of a compound that is named as a salt. Where two headings read alike, the source gives them in different places.

T1 sequence (P27338 whole entry): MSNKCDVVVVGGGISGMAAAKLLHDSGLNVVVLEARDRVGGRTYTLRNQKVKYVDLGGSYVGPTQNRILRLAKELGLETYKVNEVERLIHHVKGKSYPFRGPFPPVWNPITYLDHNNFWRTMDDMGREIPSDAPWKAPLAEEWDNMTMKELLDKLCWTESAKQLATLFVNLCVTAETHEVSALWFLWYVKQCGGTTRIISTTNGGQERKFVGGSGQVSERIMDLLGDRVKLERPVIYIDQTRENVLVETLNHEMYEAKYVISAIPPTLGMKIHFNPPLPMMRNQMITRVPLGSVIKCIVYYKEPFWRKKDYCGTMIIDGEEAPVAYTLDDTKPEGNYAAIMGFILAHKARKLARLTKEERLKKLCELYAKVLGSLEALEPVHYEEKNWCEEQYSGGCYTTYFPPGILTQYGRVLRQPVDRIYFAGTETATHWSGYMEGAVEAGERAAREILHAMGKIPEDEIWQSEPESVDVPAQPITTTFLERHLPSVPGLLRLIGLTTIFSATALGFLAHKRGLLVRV
T3 sequence (P21397 whole entry): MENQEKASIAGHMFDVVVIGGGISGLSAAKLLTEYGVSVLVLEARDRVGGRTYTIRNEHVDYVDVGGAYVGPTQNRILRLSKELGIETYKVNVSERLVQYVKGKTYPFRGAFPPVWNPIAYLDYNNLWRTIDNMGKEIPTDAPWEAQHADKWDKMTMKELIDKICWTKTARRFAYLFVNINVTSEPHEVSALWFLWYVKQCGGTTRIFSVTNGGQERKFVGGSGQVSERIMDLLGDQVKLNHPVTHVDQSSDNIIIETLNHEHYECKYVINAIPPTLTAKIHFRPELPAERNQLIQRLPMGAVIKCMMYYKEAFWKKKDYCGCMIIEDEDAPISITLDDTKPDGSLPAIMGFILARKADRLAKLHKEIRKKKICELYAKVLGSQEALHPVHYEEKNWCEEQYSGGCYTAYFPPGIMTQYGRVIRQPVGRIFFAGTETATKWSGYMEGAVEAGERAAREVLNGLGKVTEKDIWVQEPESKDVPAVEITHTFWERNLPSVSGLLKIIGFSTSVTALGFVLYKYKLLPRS

Take `N[C@H]1C[C@@H]1c1ccc(-c2cc(Cl)cc(Cl)c2)nc1` (relative stereo) [Example 6, (Trans)-2-(6-(3,5-dichlorophenyl)pyridin-3-yl)cyclopropanamine hydrochloride]: the Ki at MAO-B [1] fell in the range of 100 to 1000 nM; in assay [2], 100 to 1000 nM; on MAO-A [3], 1000 to 40000 nM.
As for `N[C@H]1C[C@@H]1c1ccc(-c2ccc(Cl)cc2)nc1` (relative stereo) [Example 7, (trans)-2-(6-(4-chlorophenyl)pyridin-3-yl)cyclopropanamine hydrochloride], the values for the Ki (at MAO-B [1]; in assay [2]; at MAO-A [3]) were 100 to 1000 nM, 100 to 1000 nM and 1000 to 40000 nM, respectively.
For the compound `N[C@H]1C[C@@H]1c1ccc(-c2ccc(C(F)(F)F)cc2)nc1` (relative stereo) [Example 9, (trans)-2-(6-(4-(trifluoromethyl)phenyl)pyridin-3-yl)cyclopropanamine hydrochloride], the Ki is 1 to 100 nM at MAO-B [1], 100 to 1000 nM in assay [2] and 1000 to 40000 nM at MAO-A [3].
For `COc1ccc(-c2ccc([C@H]3C[C@@H]3N)cn2)cc1` (relative stereo) [Example 10, (trans)-2-(6-(4-methoxyphenyl)pyridin-3-yl)cyclopropanamine hydrochloride], the Ki on MAO-B [1] was 1000 to 40000 nM; in assay [2], 100 to 1000 nM; on MAO-A [4], 1000 to 40000 nM.
As to `NC(=O)c1ccc(-c2ccc([C@H]3C[C@@H]3N)cn2)cc1` (relative stereo) [Example 18, 4-(5-((trans)-2-aminocyclopropyl)pyridin-2-yl)benzamide hydrochloride], the Ki (on MAO-B [5]; in assay [6]; on MAO-A [3]) was 1000 to 40000 nM each time.
On to `Cc1cc([C@H]2C[C@@H]2N)cnc1-c1cccc(Cl)c1` (relative stereo) [Example 36, (trans)-2-(6-(3-chlorophenyl)-5-methylpyridin-3-yl)cyclopropanamine], for which the Ki (at MAO-B [5]; in assay [6]; on MAO-A [3]) was 1000 to 40000 nM each time.
Turning to `Cc1cc([C@H]2C[C@@H]2N)cnc1-c1cccc(C(F)(F)F)c1` (relative stereo) [Example 37, (trans)-2-(5-methyl-6-(3-(trifluoromethyl)phenyl)pyridin-3-yl)cyclopropanamine hydrochloride], the Ki (on MAO-B [5]; in assay [6]; at MAO-A [3]) was 1000 to 40000 nM each time.
In the case of `Cl.N[C@H]1C[C@@H]1c1ccc(-c2ccc3cn[nH]c3c2)nc1` (relative stereo) [Example 60, (Trans)-2-(6-(1H-indazol-6-yl)pyridin-3-yl)cyclopropanamine hydrochloride], the inhibition constant Ki at MAO-B [5] and at MAO-A [3] was 1000 to 40000 nM throughout. For the same compound, in assay [6], the “LSD1 (Ki)” value is “II-III”.
Take `N[C@H]1C[C@@H]1c1ccc(-c2ccc3c(c2)[nH]c2ccccc23)nc1` (relative stereo) [Example 61, (Trans)-2-(6-(9H-carbazol-2-yl)pyridin-3-yl)cyclopropanamine hydrochloride]: the Ki (on MAO-B [5]; in assay [6]; on MAO-A [3]) was 1000 to 40000 nM each time.
In the case of `CS(=O)(=O)Nc1ccccc1-c1ccc([C@H]2C[C@@H]2N)cc1.Cl` (relative stereo) [Example 73, N-(4′-((trans)-2-aminocyclopropyl)biphenyl-2-yl)methanesulfonamide hydrochloride], the Ki on MAO-B [5] and on MAO-A [3] was 1000 to 40000 nM throughout. For the same compound, the “LSD1 (Ki)” value in assay [6] is “II-III”.
As to `COc1ccc(C#N)cc1-c1ccc([C@H]2C[C@@H]2N)cc1.Cl` (relative stereo) [Example 74, 4′-((trans)-2-aminocyclopropyl)-6-methoxybiphenyl-3-carbonitrile hydrochloride], the Ki at MAO-B [5] and on MAO-A [3] was 1000 to 40000 nM throughout. For the same compound, the “LSD1 (Ki)” value in assay [6] is recorded as “II-III”.
`N[C@H]1C[C@@H]1c1ccc(-c2cccc(C(F)(F)F)c2)nc1-c1ccc(Cl)cc1` (relative stereo) [Example 77, (trans)-2-(2-(4-chlorophenyl)-6-(3-(trifluoromethyl)phenyl)pyridin-3-yl)cyclopropanamine hydrochloride]: the Ki (on MAO-B [5]; in assay [6]; on MAO-A [3]) was 1000 to 40000 nM each time.
With `N[C@H]1C[C@@H]1c1ccc(-c2cccc(C(F)(F)F)c2)nc1-c1ccc(O)cc1` (relative stereo) [Example 78, 4-(3-((trans)-2-aminocyclopropyl)-6-(3-(trifluoromethyl)phenyl)pyridin-2-yl)phenol hydrochloride], the Ki (on MAO-B [5]; in assay [6]; on MAO-A [3]) was 1000 to 40000 nM in each case.
On to `NC(=O)c1ccc(-c2nc(-c3cccc(C(F)(F)F)c3)ccc2[C@H]2C[C@@H]2N)cc1` (relative stereo) [Example 79, 4-(3-((trans)-2-aminocyclopropyl)-6-(3-(trifluoromethyl)phenyl)pyridin-2-yl)benzamide hydrochloride], for which the Ki (on MAO-B [5]; in assay [6]; at MAO-A [3]) was 1000 to 40000 nM in each case.
`CS(=O)(=O)Nc1cc(Cl)cc(-c2ccc([C@H]3C[C@@H]3N)cc2)c1` (relative stereo) [Example 94, N-(4′-((trans)-2-aminocyclopropyl)-5-chloro-[1,1′-biphenyl]-3-yl)methanesulfonamide hydrochloride]: the Ki at MAO-B [1] lay in the range of 100 to 1000 nM; in assay [2], 1 to 100 nM; on MAO-A [4] it was 100 to 1000 nM.
As for `N[C@H]1C[C@@H]1c1ccc(-c2cccc(O)c2)s1` (relative stereo) [Example 113, 3-(5-((trans)-2-aminocyclopropyl)thiophen-2-yl)phenol trihydrochloride], the Ki on MAO-B [1] fell in the range of 100 to 1000 nM; in assay [2], 1 to 100 nM; at MAO-A [4], 100 to 1000 nM.
With `N[C@H]1C[C@@H]1c1ccc(-c2ccc(-c3ccccc3)cc2)cc1` [Example 2, (trans)-2-(terphenyl-4-yl)cyclopropanamine hydrochloride], the Ki (at MAO-B [1]; in assay [2]) was 100 to 1000 nM each time.
For the compound “Enantiomers of 4′-((trans)-2-aminocyclopropyl)biphenyl-3-ol hydrochloride [Example 63]”, the Ki on MAO-B [5] lay within 1000 to 40000 nM; in assay [6], 1 to 100 nM; on MAO-A [3] it was 1000 to 40000 nM.

Broadly, the Ki is a dissociation constant, usually derived from enzyme kinetics or from competition with a known ligand.
